One compound from ChEMBL document CHEMBL4725311, “Discovery of potent, orally bioavailable in vivo efficacious antagonists of the TLR7/8 pathway” (Bioorg Med Chem Lett, 2020) can be followed below.

The IC50 is the midpoint of a concentration-inhibition curve. As usually defined, the AUC is concentration integrated over time. Higher therefore signals more exposure. As a reminder, the bioavailability is the share of a dose that reaches the circulation, judged against a reference dose that is usually intravenous. A higher bioavailability goes with much systemic uptake. A word on the clearance: it is the volume of plasma or blood freed of the substance per unit of time. A high value points to a high capacity for elimination.

Data set [1] addresses T1, Toll-like receptor 9 (Mus musculus, UniProt Q9EQU3).
T1 sequence (Q9EQU3 whole entry): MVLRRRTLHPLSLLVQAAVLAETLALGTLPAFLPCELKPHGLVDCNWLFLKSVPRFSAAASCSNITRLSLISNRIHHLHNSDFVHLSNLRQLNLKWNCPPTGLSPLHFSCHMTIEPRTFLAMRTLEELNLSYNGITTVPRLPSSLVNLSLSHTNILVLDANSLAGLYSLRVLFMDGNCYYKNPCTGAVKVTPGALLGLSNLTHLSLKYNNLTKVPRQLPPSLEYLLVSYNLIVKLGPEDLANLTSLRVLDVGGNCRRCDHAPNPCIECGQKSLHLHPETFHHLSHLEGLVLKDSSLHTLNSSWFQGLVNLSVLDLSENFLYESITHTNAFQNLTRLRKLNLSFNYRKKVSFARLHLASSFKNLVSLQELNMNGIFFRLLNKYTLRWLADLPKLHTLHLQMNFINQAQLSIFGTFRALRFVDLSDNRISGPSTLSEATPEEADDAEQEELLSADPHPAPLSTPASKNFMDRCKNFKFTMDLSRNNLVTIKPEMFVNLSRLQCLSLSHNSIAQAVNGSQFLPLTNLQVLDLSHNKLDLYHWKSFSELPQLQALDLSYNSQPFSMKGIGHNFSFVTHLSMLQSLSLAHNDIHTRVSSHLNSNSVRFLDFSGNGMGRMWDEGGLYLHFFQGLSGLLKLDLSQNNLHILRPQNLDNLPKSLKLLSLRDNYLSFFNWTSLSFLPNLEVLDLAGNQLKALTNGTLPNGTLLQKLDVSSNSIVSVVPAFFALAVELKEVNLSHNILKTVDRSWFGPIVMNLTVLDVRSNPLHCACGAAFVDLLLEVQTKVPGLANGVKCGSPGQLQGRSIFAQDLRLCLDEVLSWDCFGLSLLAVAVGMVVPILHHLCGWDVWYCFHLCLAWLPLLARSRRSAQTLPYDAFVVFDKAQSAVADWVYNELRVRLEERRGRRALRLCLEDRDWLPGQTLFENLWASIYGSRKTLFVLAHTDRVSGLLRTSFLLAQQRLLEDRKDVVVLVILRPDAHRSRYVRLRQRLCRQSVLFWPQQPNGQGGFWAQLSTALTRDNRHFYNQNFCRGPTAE
The data set can be described thus: Antagonist activity at TLR9 in mouse splenocytes assessed as inhibition of CpG1585-induced IL6 production. It is filed as cell-based, Splenocyte.

Data set [2] is described as follows: Volume of distribution at steady state in BALB/c mouse at 5 mg/kg, iv. It is filed as ADME, organism-based. The following applies: in vivo, read-out: Vdss.
Data set [3] can be described thus: AUC in BALB/c mouse at 20 mg/kg, po. The format is ADME, organism-based. To be noted: in vivo. Set-up: dose 20 mg/kg.
Data set [4] is described as follows: Oral bioavailability in BALB/c mouse at 20 mg/kg. The format is ADME, organism-based. The following applies: in vivo.
For data set [5], the target named is T2, Toll-like receptor 9 (Homo sapiens, UniProt Q9NR96).
T2 sequence (Q9NR96 whole entry): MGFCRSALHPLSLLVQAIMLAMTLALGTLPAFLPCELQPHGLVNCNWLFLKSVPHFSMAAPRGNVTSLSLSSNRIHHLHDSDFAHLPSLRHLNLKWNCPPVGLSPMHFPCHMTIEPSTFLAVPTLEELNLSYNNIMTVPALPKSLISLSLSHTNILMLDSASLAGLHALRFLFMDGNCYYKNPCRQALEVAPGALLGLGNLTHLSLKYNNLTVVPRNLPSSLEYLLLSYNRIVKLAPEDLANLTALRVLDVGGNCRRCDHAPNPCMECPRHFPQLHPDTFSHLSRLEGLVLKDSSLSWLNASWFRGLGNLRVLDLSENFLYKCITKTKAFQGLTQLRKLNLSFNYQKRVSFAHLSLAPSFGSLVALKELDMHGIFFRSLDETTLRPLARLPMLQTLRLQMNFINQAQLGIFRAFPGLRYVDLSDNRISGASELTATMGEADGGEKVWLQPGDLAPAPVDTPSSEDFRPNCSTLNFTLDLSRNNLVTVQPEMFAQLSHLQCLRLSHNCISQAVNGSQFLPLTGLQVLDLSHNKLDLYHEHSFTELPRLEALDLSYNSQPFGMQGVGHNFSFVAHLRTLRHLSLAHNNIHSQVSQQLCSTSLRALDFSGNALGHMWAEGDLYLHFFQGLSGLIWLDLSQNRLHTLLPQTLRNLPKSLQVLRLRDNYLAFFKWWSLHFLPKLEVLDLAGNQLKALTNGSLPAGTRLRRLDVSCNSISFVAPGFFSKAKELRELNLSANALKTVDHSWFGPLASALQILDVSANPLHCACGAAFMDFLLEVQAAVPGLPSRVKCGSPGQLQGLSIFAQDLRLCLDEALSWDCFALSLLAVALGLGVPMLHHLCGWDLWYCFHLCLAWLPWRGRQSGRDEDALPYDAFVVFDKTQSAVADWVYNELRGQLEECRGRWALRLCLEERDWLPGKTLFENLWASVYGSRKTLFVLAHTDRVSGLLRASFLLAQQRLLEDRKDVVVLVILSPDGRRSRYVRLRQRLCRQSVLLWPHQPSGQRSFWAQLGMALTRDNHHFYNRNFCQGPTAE
The data set can be described thus: Antagonist activity at TLR9 in human PBMC assessed as inhibition of ODN2216-induced IFNalpha production. It is filed as tissue-based.

Data set [6] is described as follows: Clearance in BALB/c mouse at 5 mg/kg, iv. The following applies: in vivo. It is filed as ADME, organism-based.

As to `Cc1cc(-c2ccnc3[nH]ncc23)cnc1OCC12CCC(N)(CC1)CC2`, the IC50 in data set [1] was 1200 nM; in data set [5], 1000 nM. For the same compound, the Vd in data set [2] worked out at 5.1 L/kg. The compound also came in with an AUC in data set [3] of 29.6 µM·h. The same compound registered a bioavailability in data set [4] of 75%. In data set [6], the clearance is 23 mL/min/kg.
